From PubChem BioAssay (NCI)
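Exposure lasted 48 hours, with cells grown in 96-well plates and compounds tested at five concentrations. TGI marks complete inhibition of growth.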

Tested on: HCC-2998 colon
Assay: DTP human tumour cell line panel, 48 h

Compound | TGI [µM]
Cc1ccc(S(=O)(=O)N2CCNCCN(S(=O)(=O)c3ccc(C)cc3)CCNCC2)cc1 | 33.4
CN=c1sc2nc(C#N)c(C#N)nc2n1C | 55.8

Tested on: DU-145 prostate
Assay: DTP human tumour cell line panel, 48 h

Compound | TGI [µM]
C=C1C(=O)O[C@H]2C1C[C@H](O)[C@@]1(C)OC1CC[C@@]1(C)O[C@H]21 (stereo partly drawn) | > 100
O=C(NCCNCCNC(=O)c1cc(-c2ccccc2)nc2ccccc12)c1cc(-c2ccccc2)nc2ccccc12 | 6.56
CC1=NN(c2nc(N)nc(/C(C#N)=C\c3ccc(-c4ccc([N+](=O)[O-])cc4)o3)n2)C(C)(C)C1 | > 100
CCOC(=O)c1nc2ccc(C(F)(F)F)cc2nc1Nc1ccc(OC)cc1 | > 100
COc1ccc2nc3ccc(OC)cc3c(SCCCl)c2c1 | > 65
CCOC(=O)C(=CNc1ccc(F)c(F)c1)C(=O)OCC | > 100
CC(Oc1ccccc1Cl)C(=O)NN1C(=O)CC(=O)N(c2ccc(Cl)cc2)C1=S (stereo not drawn) | > 100
CC(C)(O)c1cc2c(cc1C(C)(C)O)-c1ccccc1-2 | > 100
CC(C)[Si]1(C(C)C)OCC2OC(n3ccc(=O)[nH]c3=O)C([Se]c3ccccc3)C2O[Si](C(C)C)(C(C)C)O1 (stereo not drawn) | 24.7
CN(N=O)c1nc2c(C(N)=O)ncn2s1 | > 100
CC(Oc1ccc(Cl)cc1Cl)C(=O)NN1C(=O)CC(=O)N(c2ccccc2)C1=S (stereo not drawn) | > 100
CC(C)(C)OC(=O)N1CCCC1C(=O)NC(c1ccccc1)c1ccccc1 (stereo not drawn) | > 100
Cc1[nH]c(-c2ccccc2)c2nc(N(C)C)oc(=O)c12 | > 100
O=C1Cc2cn[nH]c2-c2ccccc2N1 | > 100
O=CNc1ccccc1OCCOc1ccccc1NC=O | > 100
CCOC(=O)c1c[nH]c(C(=O)C=[N+]=[N-])c1C1CCN(CC)C1=S (stereo not drawn) | > 100
Cc1ccc2nc(NS(=O)(=O)c3cc(C)c(Cl)cc3S)[nH]c2c1 | > 100
O=C1CSC(c2ccccc2O)N1c1ccc(-n2c(-c3ccccc3)nc3ccccc3c2=O)cc1 (stereo not drawn) | > 100
Cc1ccc(C(=O)Oc2ccccc2)cc1N=NN(C)C | > 100
O=C1NC2(CCNCC2)Oc2ccccc21 | > 100
O=[N+]([O-])c1cccc2nccc(NCCN3CCOCC3)c12 | > 100
O=C1NC(N/N=C\c2ccccc2)=N/C1=C/c1ccccc1 | 78.8
Cc1ccc(S(=O)(=O)N2CCNCCN(S(=O)(=O)c3ccc(C)cc3)CCNCC2)cc1 | 71.8
CN=c1sc2nc(C#N)c(C#N)nc2n1C | > 85.4

Tested on: COLO 205 colon
Assay: DTP human tumour cell line panel, 48 h

Compound | TGI [µM]
C=C1C(=O)O[C@H]2C1C[C@H](O)[C@@]1(C)OC1CC[C@@]1(C)O[C@H]21 (stereo partly drawn) | 16.9
O=C(NCCNCCNC(=O)c1cc(-c2ccccc2)nc2ccccc12)c1cc(-c2ccccc2)nc2ccccc12 | 3.8
CC1=NN(c2nc(N)nc(/C(C#N)=C\c3ccc(-c4ccc([N+](=O)[O-])cc4)o3)n2)C(C)(C)C1 | > 100
CCOC(=O)c1nc2ccc(C(F)(F)F)cc2nc1Nc1ccc(OC)cc1 | > 100
COc1ccc2nc3ccc(OC)cc3c(SCCCl)c2c1 | > 72.3
CCOC(=O)C(=CNc1ccc(F)c(F)c1)C(=O)OCC | > 100
CC(Oc1ccccc1Cl)C(=O)NN1C(=O)CC(=O)N(c2ccc(Cl)cc2)C1=S (stereo not drawn) | > 100
CC(C)(O)c1cc2c(cc1C(C)(C)O)-c1ccccc1-2 | > 100
CC(C)[Si]1(C(C)C)OCC2OC(n3ccc(=O)[nH]c3=O)C([Se]c3ccccc3)C2O[Si](C(C)C)(C(C)C)O1 (stereo not drawn) | 16.6
CN(N=O)c1nc2c(C(N)=O)ncn2s1 | > 100
CC(Oc1ccc(Cl)cc1Cl)C(=O)NN1C(=O)CC(=O)N(c2ccccc2)C1=S (stereo not drawn) | > 100
CC(C)(C)OC(=O)N1CCCC1C(=O)NC(c1ccccc1)c1ccccc1 (stereo not drawn) | > 100
Cc1[nH]c(-c2ccccc2)c2nc(N(C)C)oc(=O)c12 | > 100
O=C1Cc2cn[nH]c2-c2ccccc2N1 | > 64
O=CNc1ccccc1OCCOc1ccccc1NC=O | > 100
CCOC(=O)c1c[nH]c(C(=O)C=[N+]=[N-])c1C1CCN(CC)C1=S (stereo not drawn) | > 100
Cc1ccc2nc(NS(=O)(=O)c3cc(C)c(Cl)cc3S)[nH]c2c1 | > 100
O=C1CSC(c2ccccc2O)N1c1ccc(-n2c(-c3ccccc3)nc3ccccc3c2=O)cc1 (stereo not drawn) | > 100
Cc1ccc(C(=O)Oc2ccccc2)cc1N=NN(C)C | > 100
O=C1NC2(CCNCC2)Oc2ccccc21 | > 100
O=[N+]([O-])c1cccc2nccc(NCCN3CCOCC3)c12 | 49
O=C1NC(N/N=C\c2ccccc2)=N/C1=C/c1ccccc1 | > 100
Cc1ccc(S(=O)(=O)N2CCNCCN(S(=O)(=O)c3ccc(C)cc3)CCNCC2)cc1 | 31.1
CN=c1sc2nc(C#N)c(C#N)nc2n1C | 32.1

Tested on: MALME-3M melanoma
Assay: DTP human tumour cell line panel, 48 h

Compound | TGI [µM]
C=C1C(=O)O[C@H]2C1C[C@H](O)[C@@]1(C)OC1CC[C@@]1(C)O[C@H]21 (stereo partly drawn) | 27.4
O=C(NCCNCCNC(=O)c1cc(-c2ccccc2)nc2ccccc12)c1cc(-c2ccccc2)nc2ccccc12 | 3.33
CC1=NN(c2nc(N)nc(/C(C#N)=C\c3ccc(-c4ccc([N+](=O)[O-])cc4)o3)n2)C(C)(C)C1 | > 100
CCOC(=O)c1nc2ccc(C(F)(F)F)cc2nc1Nc1ccc(OC)cc1 | > 100
COc1ccc2nc3ccc(OC)cc3c(SCCCl)c2c1 | > 100
CCOC(=O)C(=CNc1ccc(F)c(F)c1)C(=O)OCC | > 100
CC(Oc1ccccc1Cl)C(=O)NN1C(=O)CC(=O)N(c2ccc(Cl)cc2)C1=S (stereo not drawn) | > 100
CC(C)(O)c1cc2c(cc1C(C)(C)O)-c1ccccc1-2 | > 100
CC(C)[Si]1(C(C)C)OCC2OC(n3ccc(=O)[nH]c3=O)C([Se]c3ccccc3)C2O[Si](C(C)C)(C(C)C)O1 (stereo not drawn) | 8.93
CN(N=O)c1nc2c(C(N)=O)ncn2s1 | > 100
CC(Oc1ccc(Cl)cc1Cl)C(=O)NN1C(=O)CC(=O)N(c2ccccc2)C1=S (stereo not drawn) | > 100
CC(C)(C)OC(=O)N1CCCC1C(=O)NC(c1ccccc1)c1ccccc1 (stereo not drawn) | > 100
Cc1[nH]c(-c2ccccc2)c2nc(N(C)C)oc(=O)c12 | > 100
O=C1Cc2cn[nH]c2-c2ccccc2N1 | > 69.7
O=CNc1ccccc1OCCOc1ccccc1NC=O | > 100
CCOC(=O)c1c[nH]c(C(=O)C=[N+]=[N-])c1C1CCN(CC)C1=S (stereo not drawn) | > 100
Cc1ccc2nc(NS(=O)(=O)c3cc(C)c(Cl)cc3S)[nH]c2c1 | > 100
O=C1CSC(c2ccccc2O)N1c1ccc(-n2c(-c3ccccc3)nc3ccccc3c2=O)cc1 (stereo not drawn) | 74.6
Cc1ccc(C(=O)Oc2ccccc2)cc1N=NN(C)C | > 100
O=C1NC2(CCNCC2)Oc2ccccc21 | > 100
O=[N+]([O-])c1cccc2nccc(NCCN3CCOCC3)c12 | 18.7
O=C1NC(N/N=C\c2ccccc2)=N/C1=C/c1ccccc1 | > 100
Cc1ccc(S(=O)(=O)N2CCNCCN(S(=O)(=O)c3ccc(C)cc3)CCNCC2)cc1 | 33.1
CN=c1sc2nc(C#N)c(C#N)nc2n1C | 36.4

Tested on: M14 melanoma
Assay: DTP human tumour cell line panel, 48 h

Compound | TGI [µM]
C=C1C(=O)O[C@H]2C1C[C@H](O)[C@@]1(C)OC1CC[C@@]1(C)O[C@H]21 (stereo partly drawn) | 30.6
O=C(NCCNCCNC(=O)c1cc(-c2ccccc2)nc2ccccc12)c1cc(-c2ccccc2)nc2ccccc12 | 3.12
CC1=NN(c2nc(N)nc(/C(C#N)=C\c3ccc(-c4ccc([N+](=O)[O-])cc4)o3)n2)C(C)(C)C1 | > 100
CCOC(=O)c1nc2ccc(C(F)(F)F)cc2nc1Nc1ccc(OC)cc1 | > 100
COc1ccc2nc3ccc(OC)cc3c(SCCCl)c2c1 | > 21.3
CCOC(=O)C(=CNc1ccc(F)c(F)c1)C(=O)OCC | > 100
CC(Oc1ccccc1Cl)C(=O)NN1C(=O)CC(=O)N(c2ccc(Cl)cc2)C1=S (stereo not drawn) | > 100
CC(C)(O)c1cc2c(cc1C(C)(C)O)-c1ccccc1-2 | > 100
CC(C)[Si]1(C(C)C)OCC2OC(n3ccc(=O)[nH]c3=O)C([Se]c3ccccc3)C2O[Si](C(C)C)(C(C)C)O1 (stereo not drawn) | 21.8
CN(N=O)c1nc2c(C(N)=O)ncn2s1 | > 100
CC(Oc1ccc(Cl)cc1Cl)C(=O)NN1C(=O)CC(=O)N(c2ccccc2)C1=S (stereo not drawn) | > 100
CC(C)(C)OC(=O)N1CCCC1C(=O)NC(c1ccccc1)c1ccccc1 (stereo not drawn) | > 100
Cc1[nH]c(-c2ccccc2)c2nc(N(C)C)oc(=O)c12 | > 100
O=C1Cc2cn[nH]c2-c2ccccc2N1 | > 55.2
O=CNc1ccccc1OCCOc1ccccc1NC=O | > 100
CCOC(=O)c1c[nH]c(C(=O)C=[N+]=[N-])c1C1CCN(CC)C1=S (stereo not drawn) | > 100
Cc1ccc2nc(NS(=O)(=O)c3cc(C)c(Cl)cc3S)[nH]c2c1 | > 100
O=C1CSC(c2ccccc2O)N1c1ccc(-n2c(-c3ccccc3)nc3ccccc3c2=O)cc1 (stereo not drawn) | > 100
Cc1ccc(C(=O)Oc2ccccc2)cc1N=NN(C)C | > 100
O=C1NC2(CCNCC2)Oc2ccccc21 | > 100
O=[N+]([O-])c1cccc2nccc(NCCN3CCOCC3)c12 | 34
O=C1NC(N/N=C\c2ccccc2)=N/C1=C/c1ccccc1 | > 100
Cc1ccc(S(=O)(=O)N2CCNCCN(S(=O)(=O)c3ccc(C)cc3)CCNCC2)cc1 | 34.7
CN=c1sc2nc(C#N)c(C#N)nc2n1C | > 58.9

Tested on: NCI/ADR-RES ovarian
Assay: DTP human tumour cell line panel, 48 h

Compound | TGI [µM]
C=C1C(=O)O[C@H]2C1C[C@H](O)[C@@]1(C)OC1CC[C@@]1(C)O[C@H]21 (stereo partly drawn) | 44
O=C(NCCNCCNC(=O)c1cc(-c2ccccc2)nc2ccccc12)c1cc(-c2ccccc2)nc2ccccc12 | 4.18
CC1=NN(c2nc(N)nc(/C(C#N)=C\c3ccc(-c4ccc([N+](=O)[O-])cc4)o3)n2)C(C)(C)C1 | > 100
CCOC(=O)c1nc2ccc(C(F)(F)F)cc2nc1Nc1ccc(OC)cc1 | > 100
COc1ccc2nc3ccc(OC)cc3c(SCCCl)c2c1 | > 58.7
CCOC(=O)C(=CNc1ccc(F)c(F)c1)C(=O)OCC | > 100
CC(Oc1ccccc1Cl)C(=O)NN1C(=O)CC(=O)N(c2ccc(Cl)cc2)C1=S (stereo not drawn) | > 100
CC(C)(O)c1cc2c(cc1C(C)(C)O)-c1ccccc1-2 | > 100
CC(C)[Si]1(C(C)C)OCC2OC(n3ccc(=O)[nH]c3=O)C([Se]c3ccccc3)C2O[Si](C(C)C)(C(C)C)O1 (stereo not drawn) | 26.7
CN(N=O)c1nc2c(C(N)=O)ncn2s1 | > 100
CC(Oc1ccc(Cl)cc1Cl)C(=O)NN1C(=O)CC(=O)N(c2ccccc2)C1=S (stereo not drawn) | > 100
CC(C)(C)OC(=O)N1CCCC1C(=O)NC(c1ccccc1)c1ccccc1 (stereo not drawn) | > 100
Cc1[nH]c(-c2ccccc2)c2nc(N(C)C)oc(=O)c12 | > 100
O=C1Cc2cn[nH]c2-c2ccccc2N1 | > 100
O=CNc1ccccc1OCCOc1ccccc1NC=O | > 100
CCOC(=O)c1c[nH]c(C(=O)C=[N+]=[N-])c1C1CCN(CC)C1=S (stereo not drawn) | > 100
Cc1ccc2nc(NS(=O)(=O)c3cc(C)c(Cl)cc3S)[nH]c2c1 | > 100
O=C1CSC(c2ccccc2O)N1c1ccc(-n2c(-c3ccccc3)nc3ccccc3c2=O)cc1 (stereo not drawn) | 72.6
Cc1ccc(C(=O)Oc2ccccc2)cc1N=NN(C)C | > 100
O=C1NC2(CCNCC2)Oc2ccccc21 | > 100
